Measured values: patent US20240418735A1, “Methods and Kits for Determining Insulin Resistance Treatment” (Scimar Ltd., priority 2021, published 2024)

Columns and labels:
[1] = system: MIS (Meal-induced Insulin Sensitization); experiment: RIST index / % MIS before and 90 minutes after a mixed liquid meal in sucrose-supplemented rats; assay type: in vivo; conditions: for restoration of MIS on increasing the dose: increased doses of either NAC or BE, sucrose-supplemented rats
Source text: While the present invention is not limited to a particular model or mechanism of action, it appears the response to feeding results in the release of acetylcholine which activates muscarinic receptors in the liver. This activation leads to increased production of nitric oxide which stimulates guanyl cyclase activity, resulting in increased levels of cyclic guanosine monophosphate which acts in stimulating the release of hepatalin from the liver. Meal-induced insulin […] (MIS) results from insulin-induced secretion of hepatalin which can only occur if the liver receives two permissive feeding signals. Absence of either signal blocks the ability of insulin to trigger hepatalin secretion. The combination of bethanechol and N-acetylcystelne (BENAC) mimics the 2 signals.
FIG. 1 is a chart showing BENAC synergistic treatment of AMIS. The % MIS (hepatalin/insulin action×100%) calculated from the RIST index in 24 hour fasted anaesthetized rats determined before and 90 minutes after intragastric injection of a mixed liquid meal in a normal control group and in four groups that had been treated with nine weeks of sucrose supplementation.

[2] = system: hepatalin secretion; conditions: one dose given before a test meal; rats on sucrose supplemented diet, 9 weeks; cited from earlier work
[3] = system: GSH; experiment: GSH levels in sucrose-supplemented rats; assay type: in vivo; conditions: nine weeks of sucrose supplementation

| Compound | restoration of MIS (% MIS calculated from the RIST index) ([1]; 24 hour fasted anaesthetized rats, nine weeks of sucrose supplementation, before and 90 minutes after intragastric mixed liquid meal) | restoration of MIS on increasing the dose [1] | ability of insulin to stimulate hepatalin secretion [2] | effect on the RIST index ([1]; 24 hour fasted anaesthetized rats, nine weeks of sucrose supplementation) | GSH levels [3] |
| --- | --- | --- | --- | --- | --- |
| CC(C[N+](C)(C)C)OC(N)=O (stereo not shown) [Bethanechol] | modest restoration of MIS | restored MIS to levels seen after feeding but not above | ineffective |  |  |
| CC(=O)N[C@@H](CS)C(=O)O [N-acetyl cysteine] |  | restored MIS to levels seen after feeding but not above | ineffective | no effect | elevated GSH levels to that seen after feeding |
